Source: paper PMC9164017 (ACS nano, 2021)

How the values were obtained:
MeV F (S262R) = MeV F (S262R) (Measles virus, UniProt Q786F3, S262R); format: cell-based; conditions: 1 μM, 60 min 37 °C, then 10 mM zanamivir; triplicate experiments
MeV F = MeV F (Measles virus, UniProt Q786F3); format: cell-based; conditions: with or without 3g, coincubation or sequential incubation; Figure S17

## N#Cc1cccc(NC(=O)Cc2ccccc2)c1 [3g, N-(3-Cyanophenyl)-2-phenylacetamide]
MeV F (S262R)
  step of entry at which the compound acts (RBCs released, retained or fused): reversibly bound RBC
MeV F
  colocalization of [FIP–HRC]2–PEG11 with F: colocalization is disrupted
